One test has as its target hGal-1 (Homo sapiens, UniProt P09382). As to the kind of experiment: ITC. In kind it is binding.
A further test deals with hGal-3 (Homo sapiens, UniProt P17931). As to the kind of experiment: ITC. In kind it is binding.

Structures are written as SMILES.

hGal-1, sequence (P09382 2-135): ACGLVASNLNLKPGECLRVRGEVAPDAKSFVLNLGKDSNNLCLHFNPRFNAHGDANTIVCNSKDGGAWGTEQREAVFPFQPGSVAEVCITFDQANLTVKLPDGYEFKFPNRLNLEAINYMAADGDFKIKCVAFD
hGal-3, sequence (P17931 2-250): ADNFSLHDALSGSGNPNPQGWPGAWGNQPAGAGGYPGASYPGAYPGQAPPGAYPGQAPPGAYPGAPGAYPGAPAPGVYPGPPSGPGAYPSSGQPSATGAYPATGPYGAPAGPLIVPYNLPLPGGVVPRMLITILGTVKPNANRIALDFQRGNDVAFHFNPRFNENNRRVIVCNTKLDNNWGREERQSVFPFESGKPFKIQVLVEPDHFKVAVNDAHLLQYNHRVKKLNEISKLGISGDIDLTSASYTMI

As for `CC(=O)N[C@H]1[C@H](O[C@H]2[C@@H](O)[C@@H](CO)O[C@@H](O[C@H]3[C@H](O)[C@@H](NC(C)=O)[C@H](OCCN=[N+]=[N-])O[C@@H]3CO)[C@@H]2O)O[C@H](CO)[C@@H](O[C@@H]2O[C@H](CO)[C@H](O)[C@H](O)[C@H]2O)[C@@H]1O` [compound 1, 2‐Azidoethyl (β‐D‐galactopyranosyl)‐(1→4)‐(2‐acetamido‐2‐deoxy‐β‐D‐glucopyranosyl)‐(1→3)‐(β‐D‐galactopyranosyl)‐(1→4)‐2‐acetamido‐2‐deoxy‐β‐D‐glucopyranoside], the equilibrium dissociation constant (Kd) was found to be 94.7 ± 2.2 µM at hGal-1 and 5.6 ± 0.1 µM at hGal-3.
`OC[C@H]1O[C@@H]([Se][Se][C@@H]2O[C@H](CO)[C@H](O)[C@H](O)[C@H]2O)[C@H](O)[C@@H](O)[C@H]1O` [DSeDG] came in with a Kd on hGal-3 of 2800 ± 180 µM.
Consider `OC[C@H]1O[C@@H]([Se][C@@H]2O[C@H](CO)[C@H](O)[C@H](O)[C@H]2O)[C@H](O)[C@@H](O)[C@H]1O` [SeDG], for which the values for the dissociation constant (Kd) on hGal-1 and on hGal-3 were 108 ± 1.4 µM and 93.1 ± 2.6 µM, respectively.
Take `CC(=O)N[C@H]1[C@H](O[C@H]2[C@@H](O)[C@@H](CO)O[C@@H](O[C@H]3[C@H](O)[C@@H](O)[C@H](OCCCN)O[C@@H]3CO)[C@@H]2O)O[C@H](CO)[C@@H](O)[C@@H]1O[C@@H]1O[C@H](CO)[C@H](O)[C@H](O)[C@H]1O` [compound 2, 3‐Aminopropyl (β‐D‐galactopyranosyl)‐(1→3)‐(2‐acetamido‐2‐deoxy‐β‐D‐glucopyranosyl)‐(1→3)‐(β‐D‐galactopyranosyl)‐(1→4)‐β‐D‐glucopyranoside]: the values for the Kd at hGal-1 and at hGal-3 were 175 ± 3.2 µM and 28.1 ± 0.5 µM, respectively.

(Values after paper PMC7839768 (Chemistry (Weinheim an Der Bergstrasse, Germany), 2020).)
